From US5260327A, “Methods for inhibiting the proliferation of brain and hepatic metastases by using lonidamine” (priority 1992, dated 1993)
“Also recorded” adds a separate entry of the source.

How the values were obtained:
Meth-A fibrosarcoma [1] = test: In vivo trimodality therapy versus single and bimodality therapy, tumor growth delay; parameters: species or system mice; conditions: lonidamine 50 mg/kg/day
Description: (§1) The effect of trimodality therapy has been examined in HeLa monolayer cell cultures and in the transplanted Meth-A fibrosarcoma. The studies in HeLa cell cultures used a single radiation fraction, and prompt subculture for clonal analysis, conditions which would reduce any heat or drug-induced effect on potential lethal damage. […] In vivo comparative assessment of trimodality therapy versus single and bimodality combination was made in the oxic Meth-A fibrosarcoma. The trimodality regimen consisted of lonidamine (50 mg/kg/day chronically throughout the period of observation), plus radiation therapy (6 Gy×5), and hyperthermia (41.2° C.×65 min pre radiation therapy on days 1 and 4 of therapy); the results are presented in FIG. 14.

[2] = test system: cell culture and murine tumor systems; conditions: cited from earlier work
brain metastases = conditions: cited from earlier work
HeLa cells = test: Trimodality therapy in HeLa monolayer cell cultures; format: cell-based, human
Description: Lonidamine was present only during heating.
as §1

[3] = test system: Stage 2-4 head and neck cancer; conditions: cited from earlier work
[4] = cited from earlier work
[5] = test system: multicellular HeLa spheroids; test: Radio-enhancement in multicellular tumor spheroids (growth delay); format: cell-based, human
Description: Based on these studies, and on supportive studies in mice receiving the drug chronically,Kim et al. proposed that optimal use of lonidamine would be to employ it both during and, in a prolonged exposure, after the course of radiation therapy.
The drug's radio-enhancing effects in multicellular tumor spheroids (MTS) was examined assessing growth delay following radiation with and without the drug.

hepatic metastases = test: Phase I study of lonidamine + radiation therapy in patients with hepatic metastases; format: in vivo, human (patients)
Description: Lonidamine has received extensive clinical assessment both as a single agent and in combination with radiation therapy. […] In this dosage peak plasma levels of 5 to 15 μg/ml are attained; this is within the range that enhances the effect of radiation and hyperthermia in model systems (24-26, 30, 37 and 38). Two combined lonidamine+radiation therapy studies have been conducted in patients with extensive hepatic or brain metastases, respectively. […] The study in patients with brain metastases employed a randomized comparative design. Fifty eight patients were enrolled; 31 received lonidamine plus whole brain radiation therapy (WBRT) 300 cGy×10; 27 received WBRT alone.

spermatogenesis = conditions: in vivo; cited from earlier work
[6] = test system: repair of radiation-induced potentially lethal damage (PLD); conditions: cited from earlier work
Meth-A fibrosarcoma [7] = test: In vivo therapy with lonidamine, radiation and hyperthermia, tumor control; parameters: species or system BALB/cBy mice
Description: Localized radiation and hyperthermia was performed on BALB/cBy mice when tumors were 0.7+/-0.1 cucm and tumor analysis endpoints have been previously described. (26) Tumor control was defined as non-palpable tumor at 60 days. Waterbath temperatures were 41.7° C./65 minutes and […]/65 minutes×2 fractions. […] (Bailey, 26 g thermocouple) below circulated water bath temperatures. Separation between the two hyperthermia treatments was 72 hours.
Lonidamine administration at hour pre-radiation and immediately hyperthermia and was based on serum pharmacokinetic and radiation studies (25). Animals were primed at 100 mg/kg. s.c., 3 days pre-radiation or hyperthermia. At the initiation of radiation or hyperthermia, animals were inoculated 50 mg/kg i.p. 1 hour before treatment and 50 mg/kg s.c. at 48 hours post treatment. Animals were maintained (100 mg/kg) during fractionation and post treatment until recurrence to initial volumes.

[8] = test system: oxidative and glycolytic metabolism of mammalian cells; conditions: cited from earlier work
[9] = single large daily dosage just prior to radiation

O=C(O)c1nn(Cc2ccc(Cl)cc2Cl)c2ccccc12 [lonidamine]
day of tumor regrowth, trimodality therapy (Meth-A fibrosarcoma [1]; 6 Gy×5, 41.2° C.×65 min, regrowth not yet evident (radiation+hyperthermia: day 18)): > 32 days
tumor growth inhibition, radiation therapy+lonidamine, until day (Meth-A fibrosarcoma [1]; radiation 6 Gy×5 (radiation alone: day 11)): 13 days
tumor regression, trimodality therapy (Meth-A fibrosarcoma [1]; radiation 6 Gy×5, hyperthermia 41.2° C.×65 min days 1 and 4): tumor regression to the point of non-palpability
pH dependence of hyperthermia enhancing effects ([2]; acidification of cell culture medium): greatly increased by acidification of the cell culture medium; also recorded: increased in cells under conditions of reduced extracellular pH
radiation and hyperthermia enhancement [2]: radiation and hyperthermia enhancing agent in cell culture and murine tumor systems; also recorded: enhanced cytotoxic effects in cells treated either with radiation or hyperthermia
response or survival, lonidamine + WBRT vs WBRT alone (brain metastases; WBRT 300 cGy×10): no significant difference in response or survival
patients with peak plasma levels ≥15 μg/ml, WBRT study (brain metastases; [9]): 15 of 30
cytotoxic effect on HeLa cells (HeLa cells; 37° C.): no cytotoxic effect on HeLa cells at 37 °C
trimodality therapy vs radiation alone or bimodality therapy (HeLa cells; radiation therapy+lonidamine+mild hyperthermia (41.5° C.), single radiation fraction): clearly superior to radiation alone, or bimodality therapy
disease free survival at 2 years (all patients) ([3]; Radiation Therapy+Lonidamine 150 mg t.i.d. (placebo arm: 25%)): 51%
complete response rate ([3]; Radiation Therapy+Lonidamine 150 mg t.i.d. (placebo arm: 58%)): 69%
remission duration ([3]; Radiation Therapy+Lonidamine 150 mg t.i.d. vs placebo arm): longer in the lonidamine treated arm
disease free survival rate versus radiation therapy ([3]; lonidamine + radiation therapy, placebo-controlled randomized study): significantly increased the disease free survival rate
peak plasma levels ([4]; 150 mg t.i.d.): 5 to 15 µg/mL
tolerability ([4]; 150 mg t.i.d.): well tolerated by most patients
dose-limiting side effect ([4]; clinical): skeletal muscle discomfort
spheroid regrowth on lonidamine removal ([5]; lonidamine removed 5 days following the last radiation exposure): begins to grow again when lonidamine is removed
effect of fractionation of radiation dose on lonidamine effect ([5]; multicellular HeLa spheroids, with radiation): increased by fractionation of the radiation dose; also recorded: increased with increasing dose fractionation
objective tumor regression (hepatic metastases; lonidamine + radiation therapy 250 to 500 cGy ×5): five of fifteen
patients with peak plasma levels ≥15 μg/ml, hepatic study (hepatic metastases; [9]): 11 of 17
patient tolerance of the combination (hepatic metastases; single large daily lonidamine dosage + radiation therapy): acceptable patient tolerance
inhibition of spermatogenesis (spermatogenesis): potent inhibitor of spermatogenesis in mammals
inhibition of repair of radiation-induced potentially lethal damage [6]: inhibitor of repair of radiation-induced potentially lethal damage; also recorded: established inhibitor of repair of potential lethal damage
tumor response, lonidamine+hyperthermia vs hyperthermia alone and radiation+lonidamine vs radiation alone (Meth-A fibrosarcoma [7]; 41.2° C. or 41.7° C., fractionated): No differences were observed
tumor response, lonidamine in adjuvant capacity (Meth-A fibrosarcoma [7]; adjuvant): Marginal differences in tumor response
tri-modality therapy vs single or bi-modality treatments (Meth-A fibrosarcoma [7]; mouse, in vivo): consistently greater effect when compared to single or bi-modality treatments
tumor control, tri-modality therapy (radiation+hyperthermia+lonidamine) (Meth-A fibrosarcoma [7]; non-palpable tumor at 60 days, 41.2° C. or 41.7° C.): 50-56%
tri-modality therapy vs radiation+hyperthermia at 41.2° C. (Meth-A fibrosarcoma [7]; tumor control): more effective than the tumor control for radiation+hyperthermia at 41.2 °C
effects on oxidative and glycolytic metabolism [8]: inhibitory effects on both oxidative and glycolytic metabolism of mammalian cells; also recorded: perturb energy metabolism in neoplastic cells
